Measured values reported in patent US5283256A, “Cholesterol-lowering agents” (Merck & Co., Inc., priority 1992, dated 1994).

Columns and labels:
Ras farnesylation = conditions: Hancock et al., Casey et al., Schafer et al.; cited from earlier work
[1] = molecular target: T1, squalene synthase (human HepG2 enzyme) (Homo sapiens, UniProt P37268); assay: Squalene synthase assay, human HepG2 cell enzyme; type: biochemical; conditions: 3H-farnesyl pyrophosphate, 30° C., 20 min
T1 construct: The resulting pellet from the 100,000×g centrifugation, containing the squalene synthase; endogenous in cells; host or cells: HepG2 (ATCC HB 8065), microsomal pellet of sonicated cells
T1 sequence (P37268 1-417): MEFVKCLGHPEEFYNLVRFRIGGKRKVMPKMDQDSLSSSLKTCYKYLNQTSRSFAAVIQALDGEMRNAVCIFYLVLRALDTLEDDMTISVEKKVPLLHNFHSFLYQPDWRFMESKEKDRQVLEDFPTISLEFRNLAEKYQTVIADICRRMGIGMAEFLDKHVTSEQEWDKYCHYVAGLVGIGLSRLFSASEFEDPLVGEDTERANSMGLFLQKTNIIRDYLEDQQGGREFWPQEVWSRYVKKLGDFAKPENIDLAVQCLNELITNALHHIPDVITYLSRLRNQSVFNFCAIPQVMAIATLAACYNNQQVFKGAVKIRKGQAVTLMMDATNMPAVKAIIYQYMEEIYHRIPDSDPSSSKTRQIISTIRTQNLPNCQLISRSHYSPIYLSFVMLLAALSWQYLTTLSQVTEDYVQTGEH
Experimental: The intrinsic squalene synthase inhibitory activity of representative compounds of this invention was measured by the standard in vitro protocol described below:
PREPARATION OF HUMAN HepG2 Cell ENZYME
1. SOURCE: HEPG2 CELL LINE (Liver, hepatoblastoma, Human) ATCC No. HB 8065
2. CELL GROWTH AND MAINTENANCE
Culture Medium: Minimum essential medium (MEM) with non-essential amino acids, sodium pyruvate, and 10% fetal bovine serum. The medium was changed twice weekly. […] The growth medium was prepared as listed below.
SUBCULTURE PROCEDURE: The medium was removed and washed with PBS (Phosphate-Buffered Saline 15.6 mM, pH 7.0). Fresh trypsin (0.25%)-EDTA (0.02%) with Hank's Balanced Salt solution was added and the flask was allowed to stand for a minute before the trypsin solution was removed. The flask was incubated at 37° C. until cells detached. Fresh medium was added and the cells were dispersed and dispensed into new flasks. Subcultivation ratio: 1:6. […]
HARVEST: The medium was removed and the cells were washed with PBS. […] Cells were counted (2.5×10^9 yield from 18 flasks (75 cm^2)), and resuspended in 10 mL of 50mM HEPES (N-[2-Hydroxyethyl]piperazine-N'-[2-ethane sulfonic acid]) containing 5 mM MgCl2, 2 mM MnCl2, 10 mM DTT, pH 7.5 (enzyme suspension buffer). […]

[2] = molecular target: T2, squalene synthase (rat liver enzyme) (Rattus norvegicus, UniProt Q02769); assay: Squalene synthase assay, rat liver microsomes; type: biochemical; conditions: 3H-farnesyl pyrophosphate, 30° C., 20 min
T2 construct: from tissue; host or cells: liver microsomes of male Charles River CD rats fed lovastatin
T2 sequence (Q02769 1-416): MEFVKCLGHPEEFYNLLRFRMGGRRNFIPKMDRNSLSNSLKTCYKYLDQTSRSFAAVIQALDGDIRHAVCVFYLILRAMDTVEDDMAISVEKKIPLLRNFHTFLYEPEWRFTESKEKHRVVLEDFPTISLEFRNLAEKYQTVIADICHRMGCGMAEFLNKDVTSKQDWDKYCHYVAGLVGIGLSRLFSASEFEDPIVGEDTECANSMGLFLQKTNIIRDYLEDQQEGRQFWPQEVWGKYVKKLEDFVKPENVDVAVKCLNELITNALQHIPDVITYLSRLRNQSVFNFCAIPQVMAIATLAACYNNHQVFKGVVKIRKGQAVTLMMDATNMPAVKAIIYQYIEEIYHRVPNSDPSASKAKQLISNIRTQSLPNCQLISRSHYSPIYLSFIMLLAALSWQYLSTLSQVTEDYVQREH
Experimental: The intrinsic squalene synthase inhibitory activity of representative compounds of this invention was measured by the standard in vitro protocol described below: […] Male, CHARLES RIVER CD rats (120 to 150 g) were fed a diet containing 0.1% lovastatin for 4 days. […] The homogenate was centrifuged twice at 20,000×g for 15 min. at 4° C., discarding the pellet each time. The supernatant was then centrifuged at 100,000×g for 1 hr at 4° C. The resulting microsomal pellet was resuspended in a volume of the above homogenizing buffer equal to one-fifth the volume of the original homogenate. […] The microsomal suspensions were stored in aliquots at -70° C. squalene synthase activity in these aliquots is stable for a least several months. Squalene Synthase Assay Reactions were performed in 1.2 mL polypropylene tube strips of 8. Buffer mixture and substrate mixture for the assay were prepared from the following solution: Buffer mixture contains 270 mM HEPES, pH 7.5, 20 mM Potassium fluoride and 5.4 mM Dithiothreitol (DTT). […] 400 μL of heptane layer was then removed into a minivial and mixed with 2.5 mL of scintillation fluid and the radioactivity was determined by liquid scintillation counting. […] Percent inhibition is calculated by the formula: [formula] IC50 values were determined by plotting the log of the concentration of the test compound versus the percentage inhibition. […]

farnesyl transferase = farnesyl transferase (Homo sapiens, UniProt P49354+P49356); assay: Farnesyl-transferase assay (Ras farnesylation in vitro); type: biochemical; conditions: ras-CVLS, 3H-FPP 100 nM; 60 min, room temperature; read-out: Farnesyl transferase IC50 (inhibition of Ras farnesylation in vitro)
Experimental: FARNESYL-TRANSFERASE ASSAY
I. PREPARATION OF SOLUTIONS REQUIRED FOR THE ASSAY
203.3 g MgCl2 was dissolved in 1.0 L distilled water, and filtered through a sterile filter and stored at 4° C.
264.5 g of HEPES was added to 700 mL distilled water followed by 56 mL of 1.0M MgCl2 The pH was adjusted to 7.5 with sodium hydroxide and the volume was brought to 1000 mL. The solution was filtered through a sterile filter and stored at 4° C.
iii. 0.5M Dithiothreitol (DTT, MW=154.24)
77.12 mg of DTT was dissolved in 1.0 mL of distilled water. A few drops of 10N NaOH was added to get the DTT to go into solution. 0.5M DTT was divided into 500 μL aliquots and stored at -20° C.
iv. Preparation of Assay Buffer (Prepare fresh daily)
100 μL of 0.5M DTT was added to 900 μL of 1.1M HEPES, pH 7.5 and 55.5 mM MgCl2 to yield a 10X buffer consisting of 1.0M HEPES, pH 7.5, 50 mM MgCl2 and 50 mM DTT.
v. Preparation of ^3 H-FPP
The ^3 H-FPP (NEN #NET-1042, MW=433.3) was used directly from the bottle as provided by NEN. The stock concentration of the ^3 H-FPP was 25 μM.
vi. Preparation of the reaction mix for Totals and unknown samples (on ice)
The reaction mix was prepared as below: […]
x. The filter mats were placed in counting bags, 30 mL of LKB β-scint cocktail was added and the filter mats were counted for 120 sec in the LKB β-plate counter […]
Percent inhibition was calculated according to the following equation: [formula] […]

SMILES | Inhibition of Ras farnesylation in vivo (in words) (Ras farnesylation) | IC50 [1] | IC50 [2] | IC50 (farnesyl transferase)
CC[C@H](C)C(=O)O[C@H]1C[C@@H](C)C=C2C=C[C@H](C)[C@H](CC[C@@H]3C[C@@H](O)CC(=O)O3)[C@H]21 [lovastatin] | Inhibition of Ras farnesylation in vivo has been demonstrated | – | – | –
CCCCCCCCCC(=O)OC1C(O)C2(CCCC(OC(C)=O)C(C)C/C=C/c3ccccc3)OC(C(=O)O)C(O)(C(=O)O)C1(C(=O)O)O2 (centres unmarked) [Zaragozic Acid D2] | – | 2 nM | 6 nM | 100 nM
CCCCCCCC(=O)OC1C(O)C2(CCCC(OC(C)=O)C(C)C/C=C/c3ccccc3)OC(C(=O)O)C(O)(C(=O)O)C1(C(=O)O)O2 (centres unmarked) [Zaragozic Acid D] | – | 1 nM | 6 nM | 100 nM
CC[C@H](C)C(=O)O[C@H]1CCC=C2C=C[C@H](C)[C@H](CC[C@@H]3C[C@@H](O)CC(=O)O3)[C@H]21 [compactin] | Inhibition of Ras farnesylation in vivo has been demonstrated | – | – | –
